Read-outs that look alike come from different tables or passages of the source.
Assays:
primase (UL5/UL8/UL52) [1] = molecular target: T1, primase (UL5/UL8/UL52) (Human herpesvirus 1, UniProt P10236); experiment: Polymerization of nucleoside triphosphates onto a RNA primer:DNA template; assay type: biochemical, herpes simplex virus I; conditions: for VMax: primer:template DNAT, DNAC or DNAG; for Km: primer:template with next correct NTP: DNAT (ATP), DNAC (GTP), DNAG (CTP)
primase (UL5/UL8/UL52) [2] = molecular target: T1, primase (UL5/UL8/UL52); experiment: Incorporation of nucleotides as the second nucleotide of the primer; assay type: biochemical, herpes simplex virus I
primase (UL5/UL8/UL52) [3] = molecular target: T1, primase (UL5/UL8/UL52); experiment: Incorporation of nucleotides as the 5′-terminal nucleotide of the primer; assay type: biochemical, herpes simplex virus I
primase (UL5/UL8/UL52) [4] = molecular target: T1, primase (UL5/UL8/UL52); experiment: Primer synthesis on d; assay type: biochemical, herpes simplex virus I; conditions: for incorporation by primase opposite template dG (new products of altered mobility): template d(GTCT)15, ATP, 800 μM analogue; for incorporation by primase opposite template dG (new products of altered mobility) / primers elongated after incorporation of the nucleotide: GTP; for chain termination after incorporation: template d(GTCT)15, ATP and GTP; for primers elongated after incorporation of the nucleotide: 800 μM ATP
primase (UL5/UL8/UL52) [5] = molecular target: T1, primase (UL5/UL8/UL52); experiment: Inhibition of NTP polymerization onto primer:templates; assay type: biochemical; conditions: for type of inhibition with respect to GTP incorporation: data not shown
primase (UL5/UL8/UL52) [6] = molecular target: T1, primase (UL5/UL8/UL52); assay type: biochemical, herpes simplex virus I
[7] = inhibition of ATP polymerization, ATP (100 μM), DNAT
[8] = inhibition of GTP polymerization, 800 μM GTP, DNAC
[9] = inhibition of GTP polymerization, GTP (100 μM), DNAC
[10] = IC50, inhibition of GTP polymerization, 800 μM GTP, DNAC

T1 sequence (P10189 whole entry): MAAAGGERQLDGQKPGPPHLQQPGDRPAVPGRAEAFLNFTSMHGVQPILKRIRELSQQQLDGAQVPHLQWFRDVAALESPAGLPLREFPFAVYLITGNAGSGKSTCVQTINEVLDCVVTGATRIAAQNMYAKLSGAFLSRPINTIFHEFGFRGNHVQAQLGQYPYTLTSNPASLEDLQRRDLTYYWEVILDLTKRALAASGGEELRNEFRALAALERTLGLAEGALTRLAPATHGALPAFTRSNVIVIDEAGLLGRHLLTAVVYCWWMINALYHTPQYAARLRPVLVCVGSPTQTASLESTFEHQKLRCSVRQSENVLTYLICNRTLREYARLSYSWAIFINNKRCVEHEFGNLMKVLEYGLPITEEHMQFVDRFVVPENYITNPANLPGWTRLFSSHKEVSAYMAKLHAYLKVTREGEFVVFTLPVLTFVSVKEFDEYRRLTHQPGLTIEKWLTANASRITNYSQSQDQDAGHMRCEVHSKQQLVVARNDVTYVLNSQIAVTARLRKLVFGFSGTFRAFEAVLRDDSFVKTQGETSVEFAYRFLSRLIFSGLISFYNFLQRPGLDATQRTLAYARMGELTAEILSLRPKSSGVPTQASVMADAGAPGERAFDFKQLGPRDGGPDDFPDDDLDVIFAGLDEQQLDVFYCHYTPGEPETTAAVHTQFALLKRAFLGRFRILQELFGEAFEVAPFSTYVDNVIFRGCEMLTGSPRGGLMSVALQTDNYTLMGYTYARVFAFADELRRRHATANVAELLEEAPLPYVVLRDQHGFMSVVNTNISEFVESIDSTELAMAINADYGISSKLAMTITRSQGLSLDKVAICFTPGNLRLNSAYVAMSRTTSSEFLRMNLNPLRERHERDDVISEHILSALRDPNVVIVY
T1 sequence (P10192 whole entry, further chain): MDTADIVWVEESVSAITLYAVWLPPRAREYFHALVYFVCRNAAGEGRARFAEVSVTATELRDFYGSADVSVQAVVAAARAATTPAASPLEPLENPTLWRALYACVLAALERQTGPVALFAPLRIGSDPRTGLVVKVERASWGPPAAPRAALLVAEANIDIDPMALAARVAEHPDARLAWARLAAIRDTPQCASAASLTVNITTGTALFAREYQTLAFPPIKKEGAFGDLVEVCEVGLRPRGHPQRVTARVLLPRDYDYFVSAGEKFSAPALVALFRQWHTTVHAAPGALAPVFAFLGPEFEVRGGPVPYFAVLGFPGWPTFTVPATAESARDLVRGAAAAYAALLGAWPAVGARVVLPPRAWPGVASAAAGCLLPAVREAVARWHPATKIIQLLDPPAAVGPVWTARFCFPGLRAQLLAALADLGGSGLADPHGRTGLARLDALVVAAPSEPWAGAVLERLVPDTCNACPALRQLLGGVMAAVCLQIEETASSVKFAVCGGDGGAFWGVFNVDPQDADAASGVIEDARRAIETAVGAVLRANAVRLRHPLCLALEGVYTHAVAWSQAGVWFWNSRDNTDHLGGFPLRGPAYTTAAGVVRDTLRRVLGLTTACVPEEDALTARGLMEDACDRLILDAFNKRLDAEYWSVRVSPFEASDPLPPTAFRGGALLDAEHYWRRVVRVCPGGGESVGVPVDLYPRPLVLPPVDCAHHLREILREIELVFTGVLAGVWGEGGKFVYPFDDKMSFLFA
T1 sequence (P10236 whole entry): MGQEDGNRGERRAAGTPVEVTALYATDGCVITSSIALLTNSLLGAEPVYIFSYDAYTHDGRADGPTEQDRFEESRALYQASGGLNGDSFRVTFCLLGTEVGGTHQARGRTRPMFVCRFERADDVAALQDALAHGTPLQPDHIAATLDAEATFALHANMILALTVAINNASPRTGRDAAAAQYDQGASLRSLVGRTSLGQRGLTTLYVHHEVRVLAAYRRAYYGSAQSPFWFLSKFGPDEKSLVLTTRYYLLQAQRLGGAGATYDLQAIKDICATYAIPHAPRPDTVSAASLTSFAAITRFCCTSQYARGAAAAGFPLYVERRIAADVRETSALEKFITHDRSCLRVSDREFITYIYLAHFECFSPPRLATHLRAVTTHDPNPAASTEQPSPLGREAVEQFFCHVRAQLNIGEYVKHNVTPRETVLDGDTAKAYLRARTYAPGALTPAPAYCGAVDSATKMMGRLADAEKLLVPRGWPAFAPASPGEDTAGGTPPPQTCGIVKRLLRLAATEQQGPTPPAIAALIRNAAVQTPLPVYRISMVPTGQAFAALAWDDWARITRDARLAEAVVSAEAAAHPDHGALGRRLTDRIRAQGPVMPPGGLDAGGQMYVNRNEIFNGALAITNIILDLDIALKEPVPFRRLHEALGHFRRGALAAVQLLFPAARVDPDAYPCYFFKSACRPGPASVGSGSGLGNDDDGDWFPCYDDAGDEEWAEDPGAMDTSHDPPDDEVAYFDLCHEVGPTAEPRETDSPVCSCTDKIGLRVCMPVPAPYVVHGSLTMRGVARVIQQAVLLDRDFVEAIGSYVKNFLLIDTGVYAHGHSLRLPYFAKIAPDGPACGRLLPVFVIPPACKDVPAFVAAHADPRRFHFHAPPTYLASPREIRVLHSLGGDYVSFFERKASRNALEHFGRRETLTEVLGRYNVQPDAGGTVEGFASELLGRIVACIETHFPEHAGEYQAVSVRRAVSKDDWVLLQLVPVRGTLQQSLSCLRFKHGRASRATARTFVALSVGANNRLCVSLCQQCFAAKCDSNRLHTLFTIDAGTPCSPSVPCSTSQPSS

With `Nc1ncnc2c1ncn2[C@H]1C[C@H](O)[C@@H](COP(=O)(O)OP(=O)(O)OP(=O)(O)O)O1` [2′-dATP] as the molecule, how does the VMax (primase (UL5/UL8/UL52) [1]) read?
Its VMax is 0.024 ± 0.06 pmol/h.

What about the Km (primase (UL5/UL8/UL52) [1]) of the same molecule?
Its Km is 770 ± 370 µM.

What about the VMax (primase (UL5/UL8/UL52) [2]) of the same molecule?
The VMax was over 10 pmol/min.

And the VMax (primase (UL5/UL8/UL52) [3])?
The VMax was 20 ± 1.1 pmol/min.

Which results are given for `Nc1ccn([C@H]2C[C@H](O)[C@@H](COP(=O)(O)OP(=O)(O)OP(=O)(O)O)O2)c(=O)n1` [2′-dCTP]?
VMax (primase (UL5/UL8/UL52) [1]): 0.16 ± 0.036 pmol/h; Km (primase (UL5/UL8/UL52) [1]): 640 ± 360 µM; incorporation by primase opposite template dG (new products of altered mobility) (primase (UL5/UL8/UL52) [4]): readily incorporates

Which VMax (primase (UL5/UL8/UL52) [1]) does the source give for `Nc1nc2c(ncn2[C@H]2C[C@H](O)[C@@H](COP(=O)(O)OP(=O)(O)OP(=O)(O)O)O2)c(=O)[nH]1` [2′-dGTP] here?
The VMax was 0.18 ± 0.02 pmol/h.

What about the Km (primase (UL5/UL8/UL52) [1]) of the same molecule?
Its Km is 130 ± 80 µM.

And the VMax (primase (UL5/UL8/UL52) [2])?
The VMax was 5.3 ± 0.8 pmol/min.

Which IC50 (primase (UL5/UL8/UL52) [5]; inhibition of ATP polymerization, 800 μM ATP, DNAT) does the source give for `Nc1ncnc2c1ncn2[C@@H]1O[C@H](COP(=O)(O)OP(=O)(O)OP(=O)(O)O)C[C@H]1O` [3′-dATP, cordycepin triphosphate] here?
Its IC50 is 1100 ± 170 µM.

Which IC50 (primase (UL5/UL8/UL52) [5]) does the source give for `Nc1nc2c(ncn2COCCOP(=O)(O)OP(=O)(O)OP(=O)(O)O)c(=O)[nH]1` [ACVTP, acyclovir triphosphate] here?
Its IC50 is 3200 ± 570 µM.

With `Nc1ncnc2c1ncn2[C@@H]1O[C@H](COP(=O)(O)OP(=O)(O)O)[C@@H](O)[C@H]1O` [ADP] as the molecule, how does the IC50 (primase (UL5/UL8/UL52) [5]; [7]) read?
Its IC50 is over 10000 µM.

With `Nc1ncnc2c1ncn2[C@@H]1O[C@H](COP(=O)(O)O)[C@@H](O)[C@H]1O` [AMP] as the molecule, how does the IC50 (primase (UL5/UL8/UL52) [5]; [7]) read?
Its IC50 is over 10000 µM.

For `Nc1ncnc2c1ncn2[C@@H]1O[C@H](COP(=O)(O)OP(=O)(O)OP(=O)(O)O)[C@@H](O)[C@H]1O` [ATP], which VMax (primase (UL5/UL8/UL52) [1]) is on record?
The VMax was 0.23 ± 0.09 pmol/h.

What about the Km (primase (UL5/UL8/UL52) [1]) of the same molecule?
Its Km is 1700 ± 960 µM.

And the VMax (primase (UL5/UL8/UL52) [2])?
Its VMax is 5.1 ± 1.8 pmol/min.

What about the VMax (primase (UL5/UL8/UL52) [3]) of the same molecule?
Its VMax is 14 ± 1.7 pmol/min.

How did the VMax (primase (UL5/UL8/UL52) [1]) turn out when `Nc1ncnc2c1ncn2[C@@H]1O[C@H](COP(=O)(O)OP(=O)(O)OP(=O)(O)O)[C@@H](O)[C@@H]1O` [AraATP, arabionfuranosyladenine triphosphate] was run?
Its VMax is 0.026 ± 0.004 pmol/h.

And the Km (primase (UL5/UL8/UL52) [1])?
The Km was 190 ± 110 µM.

And the VMax (primase (UL5/UL8/UL52) [2])?
Its VMax is 1.0 ± 0.16 pmol/min.

And the VMax (primase (UL5/UL8/UL52) [3])?
Its VMax is 0.04 ± 0.005 pmol/min.

With `Nc1ccn([C@@H]2O[C@H](COP(=O)(O)OP(=O)(O)OP(=O)(O)O)[C@@H](O)[C@@H]2O)c(=O)n1` [AraCTP, arabinofuranosylcytosine triphosphate] as the molecule, how does the VMax (primase (UL5/UL8/UL52) [1]) read?
The VMax was 0.30 ± 0.05 pmol/h.

And the Km (primase (UL5/UL8/UL52) [1])?
The Km was 360 ± 190 µM.

And the “chain termination after incorporation” value (primase (UL5/UL8/UL52) [4])?
The value was “very strong chain termination”.

What about the “incorporation by primase opposite template dG (new products of altered mobility)” value (primase (UL5/UL8/UL52) [4]) of the same molecule?
The value was “polymerized”.

Which results are given for `Nc1nc2c(ncn2[C@@H]2O[C@H](COP(=O)(O)OP(=O)(O)OP(=O)(O)O)[C@@H](O)[C@@H]2O)c(=O)[nH]1` [AraGTP, arabinofuranosylguanine triphosphate]?
VMax (primase (UL5/UL8/UL52) [1]): 0.044 ± 0.006 pmol/h; Km (primase (UL5/UL8/UL52) [1]): 300 ± 140 µM; VMax (primase (UL5/UL8/UL52) [2]): 4.1 ± 0.3 pmol/min

`Nc1ccn([C@@H]2O[C@H](COP(=O)(O)OP(=O)(O)OP(=O)(O)O)[C@@H](O)[C@H]2O)c(=O)n1` [CTP] was tested. Which VMax (primase (UL5/UL8/UL52) [1]) did it give?
The VMax was 1.2 ± 0.16 pmol/h.

And the Km (primase (UL5/UL8/UL52) [1])?
Its Km is 1100 ± 280 µM.

And the “primers elongated after incorporation of the nucleotide” value (primase (UL5/UL8/UL52) [4]; template d(GTCT)15)?
The value was 75%.

And the “incorporation by primase opposite template dG (new products of altered mobility)” value (primase (UL5/UL8/UL52) [4])?
Its value is “readily incorporates”.

With `Nc1nc(O)c2ncn(COC(CO)COP(=O)(O)OP(=O)(O)OP(=O)(O)O)c2n1` (centres unmarked) [GCVTP, ganciclovir triphosphate] as the molecule, how does the IC50 (primase (UL5/UL8/UL52) [5]; [8]) read?
The IC50 was 3400 ± 880 µM.

How did the “type of inhibition with respect to GTP incorporation” value (primase (UL5/UL8/UL52) [5]) turn out when `Nc1nc2c(ncn2[C@@H]2O[C@H](COP(=O)(O)OP(=O)(O)O)[C@@H](O)[C@H]2O)c(=O)[nH]1` [GDP] was run?
Its value is “competitive”.

And the IC50 (primase (UL5/UL8/UL52) [5]; [9])?
Its IC50 is 4400 ± 650 µM.

`Nc1nc2c(ncn2[C@@H]2O[C@H](COP(=O)(O)O)[C@@H](O)[C@H]2O)c(=O)[nH]1` [GMP] was tested. Which IC50 (primase (UL5/UL8/UL52) [5]; [9]) did it give?
Its IC50 is 3800 ± 540 µM.

`Nc1nc2c(ncn2[C@@H]2O[C@H](COP(=O)(O)OP(=O)(O)OP(=O)(O)O)[C@@H](O)[C@H]2O)c(=O)[nH]1` [GTP] was tested. Which VMax (primase (UL5/UL8/UL52) [1]) did it give?
Its VMax is 0.060 ± 0.012 pmol/h.

And the Km (primase (UL5/UL8/UL52) [1])?
The Km was 230 ± 170 µM.

And the VMax (primase (UL5/UL8/UL52) [2])?
Its VMax is 9.5 ± 1.3 pmol/min.

And the VMax (primase (UL5/UL8/UL52) [3])?
Its VMax is 1.1 ± 0.27 pmol/min.

`Nc1ccn(C2SC(COP(=O)(O)OP(=O)(O)OP(=O)(O)O)C(O)C2O)c(=O)n1` (centres unmarked) [SaraCTP, 4′-thio-arabinofuranosylcytosine triphosphate] was tested. Which “chain termination after incorporation” value (primase (UL5/UL8/UL52) [4]) did it give?
The value was “very strong chain termination”.

And the “incorporation by primase opposite template dG (new products of altered mobility)” value (primase (UL5/UL8/UL52) [4])?
The value was “polymerized”.

For `Nc1ccn([C@@H]2O[C@H](COP(=O)(O)OP(=O)(O)OP(=O)(O)O)[C@@H](O)C2(F)F)c(=O)n1` [dFdCTP, 2′,2′-Difluoro-2′-deoxycytidine triphosphate], which “primers elongated after incorporation of the nucleotide” value (primase (UL5/UL8/UL52) [4]; template d(GTCT)15) is on record?
Its value is 11%.

And the inhibition of primase (primase (UL5/UL8/UL52) [4]; 800 μM, template d(GTCT)15)?
The inhibition of primase was “relatively strong inhibition”.

What about the “chain termination after incorporation” value (primase (UL5/UL8/UL52) [4]) of the same molecule?
The value was “strong chain termination”.

And the “incorporation by primase opposite template dG (new products of altered mobility)” value (primase (UL5/UL8/UL52) [4])?
Its value is “polymerized”.

For `Nc1ncnc2c1ncn2[C@H]1CC[C@@H](COP(=O)(O)OP(=O)(O)OP(=O)(O)O)O1` [ddATP], which IC50 (primase (UL5/UL8/UL52) [5]; IC50, inhibition of ATP polymerization, 800 μM ATP, DNAT) is on record?
The IC50 was 1700 ± 110 µM.

And the IC50 (primase (UL5/UL8/UL52) [5]; [10])?
Its IC50 is 2400 ± 900 µM.

With `Nc1ccn([C@H]2CC[C@@H](COP(=O)(O)OP(=O)(O)OP(=O)(O)O)O2)c(=O)n1` [ddCTP] as the molecule, how does the IC50 (primase (UL5/UL8/UL52) [5]; [10]) read?
The IC50 was 800 ± 120 µM.

And the “incorporation by primase opposite template dG (new products of altered mobility)” value (primase (UL5/UL8/UL52) [4])?
Its value is “does not readily incorporate”.

What about the inhibition of primase (primase (UL5/UL8/UL52) [4]; template d(GTCT)15, increased ddCTP concentration, data not shown) of the same molecule?
Its inhibition of primase is over 90%.

`Nc1nc2c(ncn2[C@H]2CC[C@@H](COP(=O)(O)OP(=O)(O)OP(=O)(O)O)O2)c(=O)[nH]1` [ddGTP] was tested. Which “inhibition of primase activity” value (primase (UL5/UL8/UL52) [6]; template C20GCCCTA15, increasing ddGTP up to 2 mM) did it give?
The value was “up to 90%”.

What about the “incorporation by primase as third and later nucleotide (new products)” value (primase (UL5/UL8/UL52) [6]; template C20GCCCTA15 for GTP analogues, ATP, [α-32P]GTP, partly data not shown) of the same molecule?
The value was “no new products”.

And the “type of inhibition with respect to GTP incorporation” value (primase (UL5/UL8/UL52) [5])?
The value was “competitive”.

And the IC50 (primase (UL5/UL8/UL52) [5]; [8])?
The IC50 was 1100 ± 180 µM.

Reference: article PMC2586337 (Biochemistry, 2008)
